# Assay results published in PubChem BioAssay AID1963435 (Molecular Pharmacology Branch, DTP, NCI, 2024).
# System: PANC-1 complex spheroid growth, percent test/control
# Assay: Anticancer human tumor PANC-1 cell line growth inhibition [Asc];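 further: spheroids exposed to agents for 7 days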;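 on viability, T/C: percent viability relative to DMSO vehicle wells taken as 100%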
# Settings: for IC50: curve of first compound; for viability, T/C: stronger effect = lower value
# Method in brief: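 Spheroid model: tumor line + HUVEC + hMSC. Single agents and combinations; top conc. at/near clinical Cmax (10 microM if undetermined), half-log dilutions. DMSO stocks at 800-fold test concentration.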
# [1] = second compound 0.00316 µM, first compound 0.00316 µM
# [2] = second compound 0.00316 µM, first compound 0.01 µM
# [3] = second compound 0.00316 µM, first compound 0.0316 µM
# [4] = second compound 0.00316 µM, first compound 0.1 µM
# [5] = second compound 0.00316 µM, first compound 0.316 µM
# [6] = second compound 0.00316 µM, first compound 1 µM
# [7] = second compound 0.01 µM, first compound 0.00316 µM
# [8] = second compound 0.01 µM, first compound 0.01 µM
# [9] = second compound 0.01 µM, first compound 0.0316 µM
# [10] = second compound 0.01 µM, first compound 0.1 µM
# [11] = second compound 0.01 µM, first compound 0.316 µM
# [12] = second compound 0.01 µM, first compound 1 µM
# [13] = second compound 0.0316 µM, first compound 0.00316 µM
# [14] = second compound 0.0316 µM, first compound 0.01 µM
# [15] = second compound 0.0316 µM, first compound 0.0316 µM
# [16] = second compound 0.0316 µM, first compound 0.1 µM
# [17] = second compound 0.0316 µM, first compound 0.316 µM
# [18] = second compound 0.0316 µM, first compound 1 µM
# [19] = second compound 0.1 µM, first compound 0.00316 µM
# [20] = second compound 0.1 µM, first compound 0.01 µM
# [21] = second compound 0.1 µM, first compound 0.0316 µM
# [22] = second compound 0.1 µM, first compound 0.1 µM
# [23] = second compound 0.1 µM, first compound 0.316 µM
# [24] = second compound 0.1 µM, first compound 1 µM
# [25] = second compound 0.316 µM, first compound 0.00316 µM
# [26] = second compound 0.316 µM, first compound 0.01 µM
# [27] = second compound 0.316 µM, first compound 0.0316 µM
# [28] = second compound 0.316 µM, first compound 0.1 µM
# [29] = second compound 0.316 µM, first compound 0.316 µM
# [30] = second compound 0.316 µM, first compound 1 µM
# [31] = second compound 1 µM, first compound 0.00316 µM
# [32] = second compound 1 µM, first compound 0.01 µM
# [33] = second compound 1 µM, first compound 0.0316 µM
# [34] = second compound 1 µM, first compound 0.1 µM
# [35] = second compound 1 µM, first compound 0.316 µM
# [36] = second compound 1 µM, first compound 1 µM
smiles,measurement,setting,value
CCN1CCN(Cc2ccc(Nc3ncc(F)c(-c4cc(F)c5nc(C)n(C(C)C)c5c4)n3)nc2)CC1 + CNC(C)C(=O)NC1CN(S(=O)(=O)c2cccc(S(=O)(=O)N3CCC4CCC(C(=O)NC(c5ccccc5)c5ccccc5)N4C(=O)C(NC(=O)C(C)NC)C3)c2)CCC2CCC(C(=O)NC(c3ccccc3)c3ccccc3)N2C1=O,IC50,second compound 0.00316 µM,> 1000 nM
same,IC50,second compound 0.01 µM,> 1000 nM
same,IC50,second compound 0.0316 µM,> 1000 nM
same,IC50,second compound 0.1 µM,> 1000 nM
same,IC50,second compound 0.316 µM,> 1000 nM
same,IC50,second compound 1 µM,> 1000 nM
same,"viability, T/C",[1],119%
same,"viability, T/C",[2],108%
same,"viability, T/C",[3],105%
same,"viability, T/C",[4],117%
same,"viability, T/C",[5],129%
same,"viability, T/C",[6],143%
same,"viability, T/C",[7],95.1%
same,"viability, T/C",[8],96.8%
same,"viability, T/C",[9],108%
same,"viability, T/C",[10],116%
same,"viability, T/C",[11],124%
same,"viability, T/C",[12],127%
same,"viability, T/C",[13],96%
same,"viability, T/C",[14],101%
same,"viability, T/C",[15],107%
same,"viability, T/C",[16],112%
same,"viability, T/C",[17],116%
same,"viability, T/C",[18],136%
same,"viability, T/C",[19],102%
same,"viability, T/C",[20],102%
same,"viability, T/C",[21],102%
same,"viability, T/C",[22],97.4%
same,"viability, T/C",[23],107%
same,"viability, T/C",[24],118%
same,"viability, T/C",[25],92.2%
same,"viability, T/C",[26],91.8%
same,"viability, T/C",[27],109%
same,"viability, T/C",[28],105%
same,"viability, T/C",[29],118%
same,"viability, T/C",[30],129%
same,"viability, T/C",[31],98.2%
same,"viability, T/C",[32],98.2%
same,"viability, T/C",[33],99.5%
same,"viability, T/C",[34],96.5%
same,"viability, T/C",[35],109%
same,"viability, T/C",[36],113%
Cn1ncnc1[C@H]1c2n[nH]c(=O)c3cc(F)cc(c23)N[C@@H]1c1ccc(F)cc1 + CNC(C)C(=O)NC1CN(S(=O)(=O)c2cccc(S(=O)(=O)N3CCC4CCC(C(=O)NC(c5ccccc5)c5ccccc5)N4C(=O)C(NC(=O)C(C)NC)C3)c2)CCC2CCC(C(=O)NC(c3ccccc3)c3ccccc3)N2C1=O,IC50,second compound 0.00316 µM,> 100 nM
same,IC50,second compound 0.01 µM,> 100 nM
same,IC50,second compound 0.0316 µM,> 100 nM
same,IC50,second compound 0.1 µM,> 100 nM
same,IC50,second compound 0.316 µM,> 100 nM
same,IC50,second compound 1 µM,> 100 nM
same,"viability, T/C","second compound 0.00316 µM, first compound 0.000316 µM",110%
same,"viability, T/C","second compound 0.00316 µM, first compound 0.001 µM",117%
same,"viability, T/C",[1],128%
same,"viability, T/C",[2],114%
same,"viability, T/C",[3],113%
same,"viability, T/C",[4],109%
same,"viability, T/C","second compound 0.01 µM, first compound 0.000316 µM",105%
same,"viability, T/C","second compound 0.01 µM, first compound 0.001 µM",108%
same,"viability, T/C",[7],99.6%
same,"viability, T/C",[8],117%
same,"viability, T/C",[9],110%
same,"viability, T/C",[10],111%
same,"viability, T/C","second compound 0.0316 µM, first compound 0.000316 µM",96.8%
same,"viability, T/C","second compound 0.0316 µM, first compound 0.001 µM",92.8%
same,"viability, T/C",[13],96.6%
same,"viability, T/C",[14],109%
same,"viability, T/C",[15],108%
same,"viability, T/C",[16],113%
same,"viability, T/C","second compound 0.1 µM, first compound 0.000316 µM",94.3%
same,"viability, T/C","second compound 0.1 µM, first compound 0.001 µM",102%
same,"viability, T/C",[19],97.3%
same,"viability, T/C",[20],101%
same,"viability, T/C",[21],109%
same,"viability, T/C",[22],115%
same,"viability, T/C","second compound 0.316 µM, first compound 0.000316 µM",109%
same,"viability, T/C","second compound 0.316 µM, first compound 0.001 µM",98.4%
same,"viability, T/C",[25],97.5%
same,"viability, T/C",[26],99.6%
same,"viability, T/C",[27],111%
same,"viability, T/C",[28],102%
same,"viability, T/C","second compound 1 µM, first compound 0.000316 µM",87.3%
same,"viability, T/C","second compound 1 µM, first compound 0.001 µM",107%
same,"viability, T/C",[31],111%
same,"viability, T/C",[32],99%
same,"viability, T/C",[33],95.5%
same,"viability, T/C",[34],102%
O=C(c1cc(Cc2n[nH]c(=O)c3ccccc23)ccc1F)N1CCN(C(=O)C2CC2)CC1 + CNC(C)C(=O)NC1CN(S(=O)(=O)c2cccc(S(=O)(=O)N3CCC4CCC(C(=O)NC(c5ccccc5)c5ccccc5)N4C(=O)C(NC(=O)C(C)NC)C3)c2)CCC2CCC(C(=O)NC(c3ccccc3)c3ccccc3)N2C1=O,IC50,second compound 0.00316 µM,> 10000 nM
same,IC50,second compound 0.01 µM,> 10000 nM
same,IC50,second compound 0.0316 µM,> 10000 nM
same,IC50,second compound 0.1 µM,> 10000 nM
same,IC50,second compound 0.316 µM,> 10000 nM
same,IC50,second compound 1 µM,> 10000 nM
same,"viability, T/C",[3],132%
same,"viability, T/C",[4],111%
same,"viability, T/C",[5],134%
same,"viability, T/C",[6],133%
same,"viability, T/C","second compound 0.00316 µM, first compound 3.16 µM",97.3%
same,"viability, T/C","second compound 0.00316 µM, first compound 10 µM",63.4%
same,"viability, T/C",[9],109%
same,"viability, T/C",[10],100%
same,"viability, T/C",[11],105%
same,"viability, T/C",[12],104%
same,"viability, T/C","second compound 0.01 µM, first compound 3.16 µM",103%
same,"viability, T/C","second compound 0.01 µM, first compound 10 µM",98.4%
same,"viability, T/C",[15],107%
same,"viability, T/C",[16],96.2%
same,"viability, T/C",[17],96.7%
same,"viability, T/C",[18],110%
same,"viability, T/C","second compound 0.0316 µM, first compound 3.16 µM",112%
same,"viability, T/C","second compound 0.0316 µM, first compound 10 µM",91.2%
same,"viability, T/C",[21],91.2%
same,"viability, T/C",[22],100%
same,"viability, T/C",[23],92.3%
same,"viability, T/C",[24],99.1%
same,"viability, T/C","second compound 0.1 µM, first compound 3.16 µM",101%
same,"viability, T/C","second compound 0.1 µM, first compound 10 µM",81.8%
same,"viability, T/C",[27],103%
same,"viability, T/C",[28],103%
same,"viability, T/C",[29],89.2%
same,"viability, T/C",[30],95.4%
same,"viability, T/C","second compound 0.316 µM, first compound 3.16 µM",99.2%
same,"viability, T/C","second compound 0.316 µM, first compound 10 µM",93.3%
same,"viability, T/C",[33],93.7%
same,"viability, T/C",[34],106%
same,"viability, T/C",[35],87.8%
same,"viability, T/C",[36],93.2%
same,"viability, T/C","second compound 1 µM, first compound 3.16 µM",89.9%
same,"viability, T/C","second compound 1 µM, first compound 10 µM",85.2%
O=C(c1ccc(F)c(F)c1Nc1ccc(I)cc1F)N1CC(O)([C@@H]2CCCCN2)C1 + CNC(C)C(=O)NC1CN(S(=O)(=O)c2cccc(S(=O)(=O)N3CCC4CCC(C(=O)NC(c5ccccc5)c5ccccc5)N4C(=O)C(NC(=O)C(C)NC)C3)c2)CCC2CCC(C(=O)NC(c3ccccc3)c3ccccc3)N2C1=O,IC50,second compound 0.00316 µM,> 1000 nM
same,IC50,second compound 0.01 µM,> 1000 nM
same,IC50,second compound 0.0316 µM,> 1000 nM
same,IC50,second compound 0.1 µM,> 1000 nM
same,IC50,second compound 0.316 µM,> 1000 nM
same,IC50,second compound 1 µM,> 1000 nM
same,"viability, T/C",[1],98.6%
same,"viability, T/C",[2],88.8%
same,"viability, T/C",[3],90.1%
same,"viability, T/C",[4],88%
same,"viability, T/C",[5],90.5%
same,"viability, T/C",[6],84.9%
same,"viability, T/C",[7],104%
same,"viability, T/C",[8],86.1%
same,"viability, T/C",[9],89.5%
same,"viability, T/C",[10],89%
same,"viability, T/C",[11],85.9%
same,"viability, T/C",[12],85.2%
same,"viability, T/C",[13],88.2%
same,"viability, T/C",[14],86.1%
same,"viability, T/C",[15],118%
same,"viability, T/C",[16],93.6%
same,"viability, T/C",[17],86.6%
same,"viability, T/C",[18],87.3%
same,"viability, T/C",[19],101%
same,"viability, T/C",[20],86.4%
same,"viability, T/C",[21],90.7%
same,"viability, T/C",[22],90.3%
same,"viability, T/C",[23],88.4%
same,"viability, T/C",[24],87.3%
same,"viability, T/C",[25],95.2%
same,"viability, T/C",[26],89.5%
same,"viability, T/C",[27],98.9%
same,"viability, T/C",[28],89.9%
same,"viability, T/C",[29],96.8%
same,"viability, T/C",[30],89.3%
same,"viability, T/C",[31],91.4%
same,"viability, T/C",[32],93%
same,"viability, T/C",[33],89.7%
same,"viability, T/C",[34],90%
same,"viability, T/C",[35],90.6%
same,"viability, T/C",[36],91.6%
